Each structure is given as a SMILES string.

What is called melting point is the temperature, or range, at which the solid turns liquid.

Data set [1] concerns the target T1, Brd4 bromodomain 1 (BRD4(1)) (Homo sapiens, UniProt O60885).
T1 construct: made in house; host or cells: E. coli BL21(DE3)
The data set can be described thus: Inhibition of tetra-acetylated histone H4 binding to BET bromodomains (TR-FRET). Also noted: key: Active: Compounds with an IC50 value less than 30 μM were deemed to be active.; Not Active: Compounds with an IC50 value less than 30 μM were deemed to be active. The conditions noted are these: first bromodomain of Brd4, tetra-acetylated histone H4 peptide. The procedure: Proteins were cloned and overexpressed with a N-terminal 6×His tag, then purified by nickel affinity followed by size exclusion chromatography. Briefly, E. coli BL21(DE3) cells were transformed with a recombinant expression vector encoding N-terminally Nickel affinity tagged bromodomains from Brd2, Brd3, Brd4. Cell cultures were incubated at 37° C. with shaking to the appropriate density and induced overnight with IPTG. The supernatant of lysed cells was loaded onto Ni-IDA column for purification. Eluted protein is pooled, concentrated and further purified by size exclusion chromatography. Fractions representing monomeric protein were pooled, concentrated, aliquoted, and frozen at −80° C. for use in subsequent experiments.
Binding of tetra-acetylated histone H4 and BET bromodomains was confirmed by a Time Resolved Fluorescence Resonance Energy Transfer (TR-FRET) method. N-terminally His-tagged bromodomains (200 nM) and biotinylated tetra-acetylated histone H4 peptide (25-50 nM, Millipore) were incubated in the presence of Europium Cryptate-labeled streptavidin (Cisbio Cat. #610SAKLB) and XL665-labeled monoclonal anti-His antibody (Cisbio Cat. #61HISXLB) in a white 96 well microtiter plate (Greiner). For inhibition assays, serially diluted test compound was added to these reactions in a 0.2% final concentration of DMSO. Final buffer concentrations were 30 mM HEPES pH 7.4, 30 mM NaCl, 0.3 mM CHAPS, 20 mM phosphate pH 7.0, 320 mM KF, 0.08% BSA). After a 2-h incubation at room temperature, the fluorescence by FRET was measured at 665 and 620 nm by a SynergyH4 plate reader (Biotek). The binding inhibitory activity was shown by a decrease in 665 nm fluorescence relative to 620 nm. IC50 values were determined from a dose response curve.
(Time-resolved FRET reads energy transfer from a long-lived donor to a nearby acceptor.)

In another data set the test system is human AML MV-4-11 cells. In words: Inhibition of cell proliferation in cancer cell lines (CellTiter Aqueous One). It is filed as cell-based. The arrangement: key: Active: Compounds with an IC50 value less than 30 μM were deemed to be active.; Not Active: Compounds with an IC50 value less than 30 μM were deemed to be active. The following applies: 72 h. The procedure: MV4-11 cells: 96-well plates were seeded with 5×10^4 cells per well of exponentially growing human AML MV-4-11 (CRL-9591) cells and immediately treated with two-fold dilutions of test compounds, ranging from 30 μM to 0.2 μM. Triplicate wells were used for each concentration, as well as a media only and three DMSO control wells. The cells and compounds were incubated at 37° C., 5% CO2 for 72 h before adding 20 μL of the CellTiter Aqueous One Solution (Promega) to each well and incubating at 37° C., 5% CO2 for an additional 3-4 h. The absorbance was taken at 490 nm in a spectrophotometer and the percentage of proliferation relative to DMSO-treated cells was calculated after correction from the blank well. IC50 were calculated using the GraphPad Prism software.

The next data set concerns c-myc in MV4-11 cells. In words: Inhibition of c-myc expression in cancer cell lines (mRNA, real-time PCR). It is filed as cell-based, Human. The arrangement: key: Active: Compounds with an IC50 value less than 30 μM were deemed to be active.; Not Active: Compounds with an IC50 value less than 30 μM were deemed to be active. The following applies: 3 h. Here is the method: MV4-11 cells (2.5×10^4 cells) were plated in 96 well U-bottom plates with test compound or DMSO (0.1%), and incubated for 3 h at 37° C. Cells were then harvested by centrifugation, lysed, and mRNA was isolated using the mRNA catcher plus kit (Invitrogen). Reverse transcription of the mRNA and duplex amplification of the c-myc and cyclophilin cDNAs was performed using the RNA Ultrasense kit (Invitrogen) and a ViiA7 real-time PCR machine (Applied Biosystems). IC50 values were determined from a dose response curve.

`COc1cc(OC)c2c(=O)[nH]c(-c3ncccc3NC3CCN(C(=O)N(C)C)CC3)nc2c1` [Example 42, 4-((2-(5,7-Dimethoxy-4-oxo-3,4-dihydroquinazolin-2-yl)pyridin-3-yl)amino)-N,N-dimethylpiperidine-1-carboxamide] had a melting point of 195 to 197 °C. Also, in data set [1], the “FRET activity BRD4(1)” value is “Active”. Also, the “Cell Proliferation activity (IC50 < 30 μM)” value (from here on “Cell Proliferation activity”) in the data set on human AML MV-4-11 cells is “Active”. Moreover, in the data set on c-myc in MV4-11 cells, the “c-myc activity (IC50 < 30 μM)” value is “Active”.

`COc1ccc(-c2nc3cc(OC)cc(OC)c3c(=O)[nH]2)c(NCC2CCN(C(C)C)C2)c1` (stereo not drawn) [Example 16, 2-(2-(((1-Isopropylpyrrolidin-3-yl)methyl)amino)-4-methoxyphenyl)-5,7-dimethoxyquinazolin-4(3H)-one] registered a melting point of 228 to 230 °C. Besides, in data set [1], the “FRET activity BRD4(1)” value is given as “Active”. Besides, in the data set with human AML MV-4-11 cells, the “Cell Proliferation activity” value is given as “Active”. Moreover, the “c-myc activity (IC50 < 30 μM)” value in the data set on c-myc in MV4-11 cells is “Active”.

Turning to `COc1cc(OC)c2c(=O)[nH]c(-c3ncc(OCCN4CCCC4)cc3NC3CCN(C(C)C)CC3)nc2c1` [Example 66, 2-{3-(1-Isopropylpiperidin-4-ylamino)-5-[2-(pyrrolidin-1-yl)ethoxy]pyridin-2-yl}-5,7-dimethoxyquinazolin-4(3H)-one], the melting point was 166 to 169 °C. The “FRET activity BRD4(1)” value in data set [1] is on record as “Active”. For the same compound, the “Cell Proliferation activity” value in the data set on human AML MV-4-11 cells is given as “Active”. In addition, the “c-myc activity (IC50 < 30 μM)” value in the data set on c-myc in MV4-11 cells is “Active”.

For the compound `COc1cc(OC)c2c(=O)[nH]c(-c3ncccc3NC3CCN(CC(C)(C)O)CC3)nc2c1` [Example 59, 2-(3-((1-(2-Hydroxy-2-methylpropyl)piperidin-4-yl)amino)pyridin-2-yl)-5,7-dimethoxyquinazolin-4(3H)-one], the melting point lay in the range of 220 to 221 °C. Further, in data set [1], the “FRET activity BRD4(1)” value is reported as “Active”. Further, the “Cell Proliferation activity” value in the data set on human AML MV-4-11 cells is reported as “Active”. Further, in the data set on c-myc in MV4-11 cells, the “c-myc activity (IC50 < 30 μM)” value was “Active”.

Compound `COc1cc(OC)c2c(=O)[nH]c(-c3ncc(OCCO)cc3NC3CCN(C(C)C)CC3)nc2c1` [Example 62, 2-[5-(2-Hydroxyethoxy)-3-(l-isopropylpiperidin-4-ylamino)pyridin-2-yl]-5,7-dimethoxyquinazolin-4(3H)-one] had a melting point of 231 to 233 °C. Moreover, the “FRET activity BRD4(1)” value in data set [1] was “Active”. Further, the “Cell Proliferation activity” value in the data set with human AML MV-4-11 cells is “Active”. Moreover, the “c-myc activity (IC50 < 30 μM)” value with c-myc in MV4-11 cells was “Active”.

Compound `COc1ccc(-c2nc3cc(OC)cc(OC)c3c(=O)[nH]2)c(NCCCN2CCN(C)CC2)c1` [Example 21] yielded a melting point of 220 to 222 °C. Besides, in data set [1], the “FRET activity BRD4(1)” value is “Active”. In the data set on human AML MV-4-11 cells, the “Cell Proliferation activity” value was “Active”. Besides, in the data set with c-myc in MV4-11 cells, the “c-myc activity (IC50 < 30 μM)” value was “Active”.

For the origin of these results see patent publication US10500209B2, “Quinazolinones as bromodomain inhibitors” (Zenith Epigenetics Ltd., priority 2013, dated 2019).
